Experimental data as given in ChEMBL document CHEMBL3217491, “Design, synthesis and biological evaluation of imidazopyridine/pyrimidine-chalcone derivatives as potential anticancer agents” (2010).
Calls of active or inactive are those of the source. No cut-off for these calls is given here.

How the values were obtained:
[1] = system: PC-3; experiment: Growth inhibition of human PC3 cells after 48 hrs by SRB assay; assay type: functional; conditions: PC-3, 48 h
[2] = system: DU-145; experiment: Growth inhibition of human DU145 cells after 48 hrs by SRB assay; assay type: functional; conditions: DU-145, 48 h
[3] = system: MCF7; experiment: Growth inhibition of human MCF7 cells after 48 hrs by SRB assay; assay type: functional; conditions: MCF7, 48 h
[4] = system: MDA-MB-231; experiment: Growth inhibition of human MDA-MB-231 cells after 48 hrs by SRB assay; assay type: functional; conditions: MDA-MB-231, 48 h
[5] = Growth inhibition of human Hs578T cells after 48 hrs by SRB assay; assay type: functional; conditions: Hs-578T
[6] = Growth inhibition of human BT549 cells after 48 hrs by SRB assay; assay type: functional; conditions: BT-549, 48 h
[7] = system: T47D; experiment: Growth inhibition of human T47D cells after 48 hrs by SRB assay; assay type: functional
[8] = system: MDA-MB-468; experiment: Growth inhibition of human MDA-MB-468 cells after 48 hrs by SRB assay; assay type: functional; conditions: MDA-MB-468, 48 h
[9] = Growth inhibition of human LOXIMVI cells after 48 hrs by SRB assay; assay type: functional; conditions: LOX IMVI
[10] = system: Malme-3M; experiment: Growth inhibition of human MALME-3M cells after 48 hrs by SRB assay; assay type: functional
[11] = system: M14; experiment: Growth inhibition of human M14 cells after 48 hrs by SRB assay; assay type: functional; conditions: M14, 48 h
[12] = system: MDA-MB-435; experiment: Growth inhibition of human MDA-MB-435 cells after 48 hrs by SRB assay; assay type: functional; conditions: MDA-MB-435, 48 h
[13] = system: SK-MEL-2; experiment: Growth inhibition of human SK-MEL-2 cells after 48 hrs by SRB assay; assay type: functional; conditions: SK-MEL-2, 48 h
[14] = system: SK-MEL-28; experiment: Growth inhibition of human SK-MEL-28 cells after 48 hrs by SRB assay; assay type: functional; conditions: SK-MEL-28, 48 h
[15] = system: SK-MEL-5; experiment: Growth inhibition of human SK-MEL-5 cells after 48 hrs by SRB assay; assay type: functional; conditions: SK-MEL-5, 48 h
[16] = Growth inhibition of human UACC62 cells after 48 hrs by SRB assay; assay type: functional; conditions: UACC-62, 48 h
[17] = Growth inhibition of human UACC257 cells after 48 hrs by SRB assay; assay type: functional; conditions: UACC-257, 48 h
[18] = system: MCF7; experiment: Growth inhibition of human MCF7 cells assessed as cell viability at 4 uM after 24 hrs by MTT assay; assay type: functional, cell-based
[19] = system: MCF7; experiment: Cell cycle arrest in human MCF7 cells assessed as accumulation at G0/G1 phase at 4 uM after 24 hrs by propidium iodide staining-based flow cytometry (reference value: 64.04%); assay type: functional
[20] = system: MCF7; experiment: Cell cycle arrest in human MCF7 cells assessed as accumulation at S phase at 4 uM after 24 hrs by propidium iodide staining-based flow cytometry (reference value: 20.17%); assay type: functional
[21] = system: MCF7; experiment: Cell cycle arrest in human MCF7 cells assessed as accumulation at G2/M phase at 4 uM after 24 hrs by propidium iodide staining-based flow cytometry (reference value: 15.79%); assay type: functional
[22] = system: CCRF-CEM; experiment: Growth inhibition of human CCRF-CEM cells after 48 hrs by SRB assay; assay type: functional
[23] = system: HL-60(TB); experiment: Growth inhibition of human HL-60(TB) cells after 48 hrs by SRB assay; assay type: functional; conditions: HL-60, 48 h
[24] = system: K562; experiment: Growth inhibition of human K562 cells after 48 hrs by SRB assay; assay type: functional; conditions: K562, 48 h
[25] = Growth inhibition of human MOLT4 cells after 48 hrs by SRB assay; assay type: functional; conditions: MOLT-4, 48 h
[26] = system: SR; experiment: Growth inhibition of human SR cells after 48 hrs by SRB assay; assay type: functional
[27] = system: RPMI-8226; experiment: Growth inhibition of human RPMI8226 cells after 48 hrs by SRB assay; assay type: functional; conditions: RPMI-8226, 48 h
[28] = system: A549; experiment: Growth inhibition of human A549 cells after 48 hrs by SRB assay; assay type: functional; conditions: A549, 48 h
[29] = Growth inhibition of human EKVX cells after 48 hrs by SRB assay; assay type: functional
[30] = system: HOP-62; experiment: Growth inhibition of human HOP62 cells after 48 hrs by SRB assay; assay type: functional; conditions: HOP-62, 48 h
[31] = Growth inhibition of human HOP92 cells after 48 hrs by SRB assay; assay type: functional; conditions: HOP-92, 48 h
[32] = system: NCI-H226; experiment: Growth inhibition of human NCI-H226 cells after 48 hrs by SRB assay; assay type: functional; conditions: NCI-H226, 48 h
[33] = system: NCI-H23; experiment: Growth inhibition of human NCI-H23 cells after 48 hrs by SRB assay; assay type: functional; conditions: NCI-H23, 48 h
[34] = system: NCI-H322M; experiment: Growth inhibition of human NCI-H322M cells after 48 hrs by SRB assay; assay type: functional
[35] = system: NCI-H460; experiment: Growth inhibition of human NCI-H460 cells after 48 hrs by SRB assay; assay type: functional; conditions: NCI-H460, 48 h
[36] = system: NCI-H522; experiment: Growth inhibition of human NCI-H522 cells after 48 hrs by SRB assay; assay type: functional; conditions: NCI-H522, 48 h
[37] = system: COLO 205; experiment: Growth inhibition of human COLO205 cells after 48 hrs by SRB assay; assay type: functional; conditions: COLO 205, 48 h
[38] = Growth inhibition of human HCC2998 cells after 48 hrs by SRB assay; assay type: functional; conditions: HCC 2998, 48 h
[39] = system: HCT-116; experiment: Growth inhibition of human HCT116 cells after 48 hrs by SRB assay; assay type: functional; conditions: HCT-116, 48 h
[40] = Growth inhibition of human HCT15 cells after 48 hrs by SRB assay; assay type: functional; conditions: HCT-15, 48 h
[41] = system: HT-29; experiment: Growth inhibition of human HT-29 cells after 48 hrs by SRB assay; assay type: functional; conditions: HT-29, 48 h
[42] = system: KM12; experiment: Growth inhibition of human KM12 cells after 48 hrs by SRB assay; assay type: functional; conditions: KM12, 48 h
[43] = system: SW-620; experiment: Growth inhibition of human SW620 cells after 48 hrs by SRB assay; assay type: functional; conditions: SW-620, 48 h
[44] = system: SF-268; experiment: Growth inhibition of human SF268 cells after 48 hrs by SRB assay; assay type: functional; conditions: SF-268, 48 h
[45] = Growth inhibition of human SF295 cells after 48 hrs by SRB assay; assay type: functional; conditions: SF-295, 48 h
[46] = Growth inhibition of human SF539 cells after 48 hrs by SRB assay; assay type: functional; conditions: SF-539, 48 h
[47] = system: SNB-19; experiment: Growth inhibition of human SNB19 cells after 48 hrs by SRB assay; assay type: functional; conditions: SNB-19, 48 h
[48] = system: SNB-75; experiment: Growth inhibition of human SNB75 cells after 48 hrs by SRB assay; assay type: functional; conditions: SNB-75, 48 h
[49] = system: U-251; experiment: Growth inhibition of human U251 cells after 48 hrs by SRB assay; assay type: functional; conditions: U-251, 48 h
[50] = system: IGROV-1; experiment: Growth inhibition of human IGROV1 cells after 48 hrs by SRB assay; assay type: functional; conditions: IGROV-1, 48 h
[51] = Growth inhibition of human OVCAR3 cells after 48 hrs by SRB assay; assay type: functional; conditions: OVCAR-3, 48 h
[52] = Growth inhibition of human OVCAR4 cells after 48 hrs by SRB assay; assay type: functional; conditions: OVCAR-4, 48 h
[53] = Growth inhibition of human OVCAR5 cells after 48 hrs by SRB assay; assay type: functional; conditions: OVCAR-5, 48 h
[54] = Growth inhibition of human OVCAR8 cells after 48 hrs by SRB assay; assay type: functional; conditions: OVCAR-8, 48 h
[55] = Growth inhibition of human NCI-ADR-RES cells after 48 hrs by SRB assay; assay type: functional
[56] = system: SK-OV-3; experiment: Growth inhibition of human SKOV3 cells after 48 hrs by SRB assay; assay type: functional; conditions: SK-OV-3, 48 h
[57] = system: 786-0; experiment: Growth inhibition of human 786-0 cells after 48 hrs by SRB assay; assay type: functional; conditions: 786-0, 48 h
[58] = system: A498; experiment: Growth inhibition of human A498 cells after 48 hrs by SRB assay; assay type: functional; conditions: A498, 48 h
[59] = system: ACHN; experiment: Growth inhibition of human ACHN cells after 48 hrs by SRB assay; assay type: functional
[60] = system: CAKI-1; experiment: Growth inhibition of human Caki1 cells after 48 hrs by SRB assay; assay type: functional; conditions: CAKI-1, 48 h
[61] = Growth inhibition of human RXF393 cells after 48 hrs by SRB assay; assay type: functional; conditions: RXF 393, 48 h
[62] = system: SN12C; experiment: Growth inhibition of human SN12C cells after 48 hrs by SRB assay; assay type: functional
[63] = system: TK-10; experiment: Growth inhibition of human TK10 cells after 48 hrs by SRB assay; assay type: functional; conditions: TK-10, 48 h
[64] = Growth inhibition of human UO31 cells after 48 hrs by SRB assay; assay type: functional; conditions: UO-31, 48 h

COc1cc(C(=O)/C=C/c2c(-c3ccc(F)cc3)nc3ncccn23)cc(OC)c1OC
GI50 [1]: 4350 nM
GI50 [2]: 1630 nM
GI50 [3]: 1610 nM
GI50 [4]: 2990 nM
GI50 [5]: 2010 nM
GI50 [6]: 1800 nM
GI50 [7]: 2090 nM
GI50 [8]: 2750 nM
GI50 [9]: 1570 nM
GI50 [10]: 2840 nM
GI50 [11]: 2160 nM
GI50 [12]: 2360 nM
GI50 [13]: 2380 nM
GI50 [14]: 3680 nM
GI50 [15]: 2220 nM
GI50 [16]: 1740 nM
GI50 [17]: 3730 nM
inhibition [18]: Active
Activity [19]: 74.16%
Activity [20]: 21.89%
Activity [21]: 3.95%
GI50 [22]: 4050 nM
GI50 [23]: 3330 nM
GI50 [24]: 3030 nM
GI50 [25]: 3750 nM
GI50 [26]: 2280 nM
GI50 [27]: 2560 nM
GI50 [28]: 3340 nM
GI50 [29]: 2710 nM
GI50 [30]: 3120 nM
GI50 [31]: 1770 nM
GI50 [32]: 3080 nM
GI50 [33]: 1580 nM
GI50 [34]: 2070 nM
GI50 [35]: 1590 nM
GI50 [36]: 2870 nM
GI50 [37]: 1700 nM
GI50 [38]: 1770 nM
GI50 [39]: 1530 nM
GI50 [40]: 2110 nM
GI50 [41]: 2520 nM
GI50 [42]: 1690 nM
GI50 [43]: 2090 nM
GI50 [44]: 1900 nM
GI50 [45]: 2430 nM
GI50 [46]: 1550 nM
GI50 [47]: 3120 nM
GI50 [48]: 2390 nM
GI50 [49]: 1680 nM
GI50 [50]: 1930 nM
GI50 [51]: 1400 nM
GI50 [52]: 2930 nM
GI50 [53]: 2460 nM
GI50 [54]: 2690 nM
GI50 [55]: 1580 nM
GI50 [56]: 2640 nM
GI50 [57]: 2760 nM
GI50 [58]: 2200 nM
GI50 [59]: 2210 nM
GI50 [60]: 2060 nM
GI50 [61]: 1440 nM
GI50 [62]: 2260 nM
GI50 [63]: 3250 nM
GI50 [64]: 730 nM
